{"source": "patent US20230390297A1", "about": "“USE OF NUCLEOTIDE SYNTHESIS INHIBITORS FOR TARGETED THERAPY IN MLL3/4 COMPASS MUTANT CANCER” (priority 2022, published 2023)", "key": {"[1]": {"test_system": "BBN induced bladder cancer, MLL4 mutant tumors", "experiment": "BBN induced bladder cancer mouse model", "assay_type": "in vivo, C57BL/6J male mice", "settings": "15 mg/kg intraperitoneal twice a week for 12 weeks; Fisher's exact test, p=0.037", "from_the_text": "N-butyl-N-(4-hydroxybutyl)-nitrosamine (BBN) is a carcinogen, that mimics the tobacco use in human. When administered to C57/B6 male mice in drinking water for at least 20 weeks, causes muscle invasive bladder tumors (MIBC) (1). Besides, 70% of Kmt2d/MLL4 is mutated in BBN mouse model, mimicking high MLL4 mutation rate (and low UTX mutation rate) found in […] (1, 2). Thus, we believe that this is a valuable system where we could examine the effect of lometrexol in bladder cancer based on the MLL4 mutation stratification.\nExperiment design: Thirty 7-week-old C57BL/6J male mice were used in our study to induce bladder cancer by feeding them with 0.1% BBN containing water for 6 weeks. The mice were then randomized into two groups: DMSO (n=15) or lometrexol treatment (n=15) and were given intraperitoneal injections of the respective treatments twice a week at a dose of 15 mg/kg for 12 weeks. At the end of the treatment period, the bladder tissues of the mice were harvested for H&E staining and RNA isolation. Each mouse's tumor grade was assessed, and RNA samples were analyzed for mutations in the kmt2d/MLL4 gene through mRNA-seq. Finally, we compared the MLL4 genotype and treatment to the tumor stage to assess the effectiveness of the treatment."}, "[2]": {"test_system": "RKO, HCT116, DLD1 (MLL4 mutant) and HT55, Caco2, SW1417 (MLL4 WT) cells", "experiment": "RNA-seq in colorectal cancer cells treated with LTX", "assay_type": "cell-based, human", "settings": "1 μM LTX, 24 hours", "protocol": "FIG. 5. MLL4 mutant colorectal cancer cells are selectively sensitive to lometrexol treatment. (A) 100 μL of 0.5×10^5 cells/mL cells were seeded in 96-well plates one day before treatment. Cells were treated with 0-30 μM lometrexol (LTX) with 3× fold dilution for 72 hours. CellTiter-Glo® luminescent cell viability assay was performed to determine the percentage of inhibition under these conditions. The line plot compares sensitivity difference of all cell lines tested. (B) RKO, HCT116, DLD1, Caco2, HT55 and SW1417 cells were treated with DMSO or 1 μM LTX for 24 hours and whole cell lysates were used for western blot against cell cycle (H3 Ser10-p, CDT1, CyclinB 1, Geminin, CyclinEl, CyclinA2, p-cdc2) and apoptosis (PARP, Caspase3) markers using Hsp90 and I3-tubulin as loading control. […] (F) A subset of representative terms from the full cluster were selected and converted into a network layout. Each term is represented by a circle node, where its size is proportional to the number of input genes fall under that term, and its color represent its cluster identity. Terms with a similarity score>0.3 are linked by an edge (the thickness of the edge represents the similarity score). The network is visualized with Cytoscape with “force-directed” layout and with edge bundled for clarity. One term from each cluster is selected to have its term description shown as label.\nFIG. 18. RNA-seq data in colorectal cancer cells treated with LTX. (A) Cellular morphological change in different cells treated with LTX at 1 μM for 24 hours under bring field microscope.\nFIG. 19. The unique gene expression signature of MLL4 mutant cells in response to LTX treatment. (A-B) RNA-seq track examples showing the AURKA (A) and PLK1 (B) gene expression in different cell lines in response to LTX treatment. […] The 10 common genes found in the plots were defined as “lometrexol responsive mitotic gene signature” including PLK1, AURKA, CDCA3, CDC20, SFPQ, POLA1, PSRC1, KIF20A, FAM83D, and DLGAP5. (D) Volcano plots showing the 10 genes in MLL4 WT cell lines including HT55, Caco2, and SW1417.\nGene count tables were constructed using HTseq (56) with Ensembl gene annotations and used as input for edgeR 3.0.8 (57). Genes with Benjamini-Hochburg adjusted p-values less than were differentially expressed. Batch effects were removed using ComB at-seq on the raw read counts (58). Pathway analysis was performed with Metascape (59)."}}, "data": [{"smiles": "Nc1nc2c(c(=O)[nH]1)C[C@@H](CCc1ccc(C(=O)N[C@@H](CCC(=O)O)C(=O)O)cc1)CN2", "note": "[lometrexol, (2S)-2-[[4-[2-[(6R)-2-amino-4-oxo-5,6,7,8-tetrahydro-3H-pyrido[2,3-d]pyrimidin-6-yl]ethyl]benzoyl]amino]pentanedioic acid]", "values": [{"measurement": "tumor stage of mice with MLL4 mutant tumors compared with other groups", "setting": "[1]", "result": "significant lowered tumor stages"}, {"measurement": "differential gene expression change", "setting": "[2]; MLL4 mutant vs WT cells", "result": "only induced significant differential gene expression change in MLL4 mutant cells"}, {"measurement": "PLK1 and AURKA gene expression", "setting": "[2]; remained the same in MLL4 WT cells", "result": "remarkably diminished in all MLL4 mutant cells"}, {"measurement": "genes commonly downregulated in all MLL4 mutant cells (RKO, HCT116, DLD1)", "setting": "[2]; unaffected in MLL4 WT cells", "result": 885, "unit": "genes"}, {"measurement": "genes commonly upregulated in MLL4 mutant cells (RKO, HCT116, DLD1)", "setting": "[2]; unaffected in MLL4 WT cells", "result": 707, "unit": "genes"}]}]}
